Data: US12018267B2, “Plants having increased tolerance to herbicides” (BASF SE, priority 2015, dated 2024)
Several values for one entry are separate records, joined by “and”; a condition that tells them apart may be missing. Equal values may be shown once.

Assays:
[1] = test system: wild type rice materials (O. sativa M2 Volano); assay: Greenhouse foliar application, crop injury on wild type rice materials (Tables E10-1, E10-2); assay type: in vivo, Oryza sativa; conditions: wild type rice (OsCESA WT)
Description: Oryza sativa M2 Volano is a cellulose biosynthesis inhibitor susceptible rice risotto population that was subjected to sodium azide seed mutagenesis but was not tilled nor selected for CESA mutations. O. sativa Volano-M3-CESA1 and CESA3 mutants were selected from a subpopulation of O. sativa M2 Volano by sequencing CESA gene sequences in M2 plants and maintaining (producing seed through selfing) those individuals containing key mutations in these genes. The tolerance of the M3 CESA1 and CESA3 mutants was assessed using 6-(1-fluorocyclopentyl)-N2-(2,3,5,6-tetrafluorophenyl)-1,3,5-triazine-2,4-diamine, together with 1.0% DASH® EC adjuvant (BASF). The tolerance of M4 CESA1 and CESA3 mutants was assessed using 6-cyclopentyl-N4-(2,3,4,5,6-pentafluorophenyl)-1,3,5-triazine-2,4-diamine, together with 1.0% DASH® EC adjuvant (BASF).
M3 seed, which were harvested from tilled and selected individuals containing mutations in the CESA1 and CESA3 genes, were grown in the greenhouse under natural light conditions supplemented with 400 W sodium halide lamps under a 16 hr day length. Day/night temperatures were 26 and 20° C., respectively. The number of M3 plants from each line varied between 2 and 16, depending on seed availability and germination. A non-selective CBI, azine 6-(1-fluorocyclopentyl)-N2-(2,3,5,6-tetrafluorophenyl)-1,3,5-triazine-2,4-diamine, formulated with 1.0% DASH in a water volume of 375 L/ha was applied early post-emergent (one to two leaf stage) at a rate of 250 g ai/ha to M3 CESA1 and CESA3 mutant rice plants growing in soil in the greenhouse. Only plants originating from lines having more than four seeds were subjected to herbicide treatment. CESA mutant lines with four or fewer seeds were selfed for an additional generation and then tested at the M4 generation with 6-cyclopentyl-N4-(2,3,4,5,6-pentafluorophenyl)-1,3,5-triazine-2,4-diamine. M4 plants were grown under similar conditions as M3 plants and treated with 250 g ai/ha or 500 g ai/ha of 6-cyclopentyl-N4-(2,3,4,5,6-pentafluorophenyl)-1,3,5-triazine-2,4-diamine. Previous kill curve greenhouse tests had identified that a rate of 250 g ai/ha of 6-(1-fluorocyclopentyl)-N2-(2,3,5,6-tetrafluorophenyl)-1,3,5-triazine-2,4-diamine and a rate of 250 g ai/ha 6-cyclopentyl-N4-(2,3,4,5,6-pentafluorophenyl)-1,3,5-triazine-2,4-diamine, both with 1.0% DASH, were sufficient doses to kill O. sativa M2 Volano check plants. […] Plants were assessed for crop injury, using a scale from 0% injury to 100% injury, at 11 and 21 days after treatment (DAT) for M3 plants applied with 6-(1-fluorocyclopentyl)-N2-(2,3,5,6-tetrafluorophenyl)-1,3,5-triazine-2,4-diamine and 36 DAT for M4 plants applied with 6-cyclopentyl-N4-(2,3,4,5,6-pentafluorophenyl)-1,3,5-triazine-2,4-diamine. Plants without any symptoms were recorded as “0%” injury. Increasing levels of reduced leaf mass and reduced stalk stiffness, with respect to the untreated control plants, were recorded in the range of “1 to 49%” injury. Increasing levels of leaf abnormalities and leaf necrosis, along with increased levels of lodging, relative to the untreated control plants, were recorded in the range of “50 to 85%” injury. Dead or dying plants with necrosis of the apex and severe lodging were recorded between “86-100%”. Data on individual plants was assessed and recorded due to the low number of individuals per line and the fact that the CESA mutations in the M2 generation were heterozygous and therefore segregating at the M3 and M4 generations. […]

[2] = test system: O. sativa M2 Volano check plants; assay: Previous kill curve greenhouse tests on rice check plants; assay type: in vivo, Oryza sativa; conditions: with 1.0% DASH
Method: M3 seed, which were harvested from tilled and selected individuals containing mutations in the CESA1 and CESA3 genes, were grown in the greenhouse under natural light conditions supplemented with 400 W sodium halide lamps under a 16 hr day length. Day/night temperatures were 26 and 20° C., respectively. The number of M3 plants from each line varied between 2 and 16, depending on seed availability and germination. […] Plants were assessed for crop injury, using a scale from 0% injury to 100% injury, at 11 and 21 days after treatment (DAT) for M3 plants applied with 6-(1-fluorocyclopentyl)-N2-(2,3,5,6-tetrafluorophenyl)-1,3,5-triazine-2,4-diamine and 36 DAT for M4 plants applied with 6-cyclopentyl-N4-(2,3,4,5,6-pentafluorophenyl)-1,3,5-triazine-2,4-diamine. Plants without any symptoms were recorded as “0%” injury. Increasing levels of reduced leaf mass and reduced stalk stiffness, with respect to the untreated control plants, were recorded in the range of “1 to 49%” injury. Increasing levels of leaf abnormalities and leaf necrosis, along with increased levels of lodging, relative to the untreated control plants, were recorded in the range of “50 to 85%” injury. Dead or dying plants with necrosis of the apex and severe lodging were recorded between “86-100%”. […]

| Compound | Crop Injury Assessment (%) at 20 DAT ([1]; foliar application 250 g ai/ha, 20 DAT) [%] | rate sufficient to kill O. sativa M2 Volano check plants [2] [g ai/ha] | Crop injury assessment (%) at 23 DAT ([1]; foliar application 250 g ai/ha) | Crop injury assessment (%) at 36 DAT ([1]; foliar application 250 g ai/ha) | Crop injury assessment (%) at 23 DAT ([1]; foliar application 500 g ai/ha) | Crop injury assessment (%) at 36 DAT ([1]; foliar application 500 g ai/ha) [%] |
| --- | --- | --- | --- | --- | --- | --- |
| Nc1nc(Nc2c(F)c(F)cc(F)c2F)nc(C2(F)CCCC2)n1 [6-(1-fluorocyclopentyl)-N2-(2,3,5,6-tetrafluorophenyl)-1,3,5-triazine-2,4-diamine] | 100 | 250 |  |  |  |  |
| Nc1nc(Nc2c(F)c(F)c(F)c(F)c2F)nc(C2CCCC2)n1 [6-cyclopentyl-N4-(2,3,4,5,6-pentafluorophenyl)-1,3,5-triazine-2,4-diamine] |  | 250 | 75% and 65% | 70% and 95% | 98% and 95% | 100 |
